# Values joined by “and” are separate entries in the source; they are usually repeats but may differ in a detail not shown here. Equal values may be shown once.
# Key:
# [1] = test system: MCF-7 (human breast adenocarcinoma); assay: Clonogenic survival (surviving fraction) of MCF-7 cells after radiation or chemotherapeutic agent; type: cell-based
# Description: (§1) MCF-7 (human breast adenocarcinoma), LoVo (human colon adenocarcinoma) and LNCaP (human prostate carcinoma) were obtained from the American Type Culture Collection. Cells were maintained as described in Paglin et al., 1997, Biochem. Biophs. Res. Comm. 237:678-684). Irradiation was carried out 48 hours post-plating (T0) at room temperature using a Cs-137 irradiator (Sheperd Mark-I, model 68, SN643) at a dose rate of 2.43-2.32 Gy/min. Bovine aortic endothelial cells were grown and treated with H2O2 as described in Haimovitz-Friedman et al., 1994, J. Exp. Med. 180:525-535 and Verhij et al., 1996, Nature 380:75-79. Phorbol 12-myristate 13-acetate (PMA; Alexis Biochemicals Corp., San Diego, Calif.) was dissolved in dimethyl sulfoxide (DMSO) and added to cells for the duration of one hour. The final DMSO concentration was 0.03%. The cells were then rinsed with warm growth medium before being returned to the incubator for an additional 48 hours.
# (§2) Cells were plated in growth medium at a density of 30-90 cells per square centimeter and irradiated 22 hours later. Each experimental condition was done in quintet or triplicate. Cells were irradiated at room temperature in Cs-137 Irradiator (Sheperd Mark-I, Model 68, SN 643) at a rate of 2.43-2.32 Gy/min. […] For determination of their red to green ratio, colonies were processed as described above. For determination of surviving fractions cells were stained with crystal violet and colonies containing 50 cells or more were counted with a dissecting microscope. The surviving fraction was defined as the ratio between the plating efficiencies of irradiated and non-irradiated cells and was calculated at each dose level according to Hall and Phill (1994, […] for the Radiologist, 4th Edition, J. Lippincott Co., Philadelphia).
# [2] = test system: LoVo (human colon adenocarcinoma); assay: Clonogenic survival (surviving fraction) of LoVo cells after radiation or chemotherapeutic agent; type: cell-based
# Description: as §1, §2
# V-ATPase [3] = biological target: T1, V-ATPase (Homo sapiens, UniProt P27449); conditions: Gagliardi et al., 1999; cited from earlier work
# T1 sequence (P27449 whole entry): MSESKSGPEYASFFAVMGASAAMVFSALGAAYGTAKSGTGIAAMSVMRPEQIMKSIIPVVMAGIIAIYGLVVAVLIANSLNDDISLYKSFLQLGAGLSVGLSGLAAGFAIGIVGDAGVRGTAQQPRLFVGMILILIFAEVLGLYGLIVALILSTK
# V-ATPase [4] = biological target: T1, V-ATPase; conditions: binding to V-ATPase; Drose and Altendorf, 1997; cited from earlier work
# Capan-1 xenograft tumor = conditions: subcutaneous, doses smaller than 1 mg/kg/day; cited from earlier work
# [5] = subcutaneous, doses smaller than 1 mg/kg/day, cited from earlier work
# [6] = cited from earlier work
# [7] = Bafilomycin A1 8 nM, no radiation
# [8] = subcutaneous, 1.4 mol/kg/day for 14 days
substance,measurement,setting,value
bafilomycin A1,reduction of survival of irradiated cells,"[1]; 2 nM bafilomycin A1, 300 cGy, two separate experiments",45% and 32%
same,Surviving fraction in the presence of Baf A1 (2nM),"[1]; Baf A1 2nM added at irradiation for 24 hours, 2 Gy",0.51 ± 0.07
same,Surviving fraction in the presence of Baf A1 (2nM),"[1]; Baf A1 2nM added at irradiation for 24 hours, 3 Gy",0.23 ± 0.05
same,Surviving fraction in the presence of Baf A1 (2nM),"[1]; Baf A1 2nM for 24 hours, 0 Gy, listed as Baf A1",0.9 ± 0.14
same,Surviving fraction in the presence of Baf A1 (2nM),"[1]; Baf A1 2nM for 24 hours, 0 Gy, listed as bafilomycin A1",without significantly affecting
same,Normalized Surviving Fraction,"[1]; Bafilomycin A1 8 nM, 2 Gy",0.47
same,Plating Efficiency,"[1]; Bafilomycin A1 8 nM, 2 Gy",43 ± 7.7
same,Surviving Fraction,"[1]; Bafilomycin A1 8 nM, 2 Gy",0.26
same,Normalized Surviving Fraction,"[1]; Bafilomycin A1 8 nM, 4 Gy",0.11
same,Plating Efficiency,"[1]; Bafilomycin A1 8 nM, 4 Gy",21 ± 3.4
same,Surviving Fraction,"[1]; Bafilomycin A1 8 nM, 4 Gy",0.06
same,Normalized Surviving Fraction,"[1]; Bafilomycin A1 8 nM, 6 Gy",0.23
same,Plating Efficiency,"[1]; Bafilomycin A1 8 nM, 6 Gy",7 ± 3
same,Surviving Fraction,"[1]; Bafilomycin A1 8 nM, 6 Gy",0.01
same,Normalized Surviving Fraction,[1]; [7],1
same,Plating Efficiency,[1]; [7],98 ± 12
same,Surviving Fraction,[1]; [7],0.59
same,decrease of survival,"[1]; MCF-7, 2 nM bafilomycin, 100 nM adriamycin",34%
same,Surviving Fraction,"[1]; Table 4, 2 nM bafilomycin A1, 2 Gy",0.51 ± 0.07
same,Surviving Fraction,"[1]; Table 4, 2 nM bafilomycin A1, 4 Gy",0.17 ± 0.02
same,Surviving Fraction,"[1]; Table 4, 2 nM bafilomycin A1, 6 Gy",0.02 ± 0.003
same,decrease of survival following irradiation,"[1]; Table 4, 2 nM bafilomycin A1, 200 cGy",27%
same,decrease of survival following irradiation,"[1]; Table 4, 2 nM bafilomycin A1, 400 cGy",37%
same,decrease of cell survival following irradiation,"[1]; Table 5, 2 nM bafilomycin A1, 200 cGy",19%
same,decrease of cell survival following irradiation,"[1]; Table 5, 2 nM bafilomycin A1, 400 cGy",13%
same,Surviving Fraction,"[1]; Table 5, 2 nM bafilomycin A1, Radiation Dose (cGy) 0",1 ± 0.07
same,Surviving Fraction,"[1]; Table 5, 2 nM bafilomycin A1, Radiation Dose (cGy) 2",0.57 ± 0.04
same,Surviving Fraction,"[1]; Table 5, 2 nM bafilomycin A1, Radiation Dose (cGy) 4",0.27 ± 0.01
same,Surviving Fraction,"[1]; Table 5, 2 nM bafilomycin A1, Radiation Dose (cGy) 6",0.05 ± 0.01
same,reduction of survival,"[1]; Table 6, 2 nM bafilomycin, 3 Gy",37%
same,Surviving Fraction,"[1]; Table 6, 2 nM bafilomycin, X radiated 3 Gy",0.28 ± 0.03
same,Surviving Fraction,"[1]; Table 6, 4 nM bafilomycin, C non-irradiated control",0.7 ± 0.03
same,Surviving Fraction,"[1]; Table 6, 4 nM bafilomycin, X radiated 3 Gy",0.2 ± 0.03
same,Surviving Fraction,"[1]; Table 6, 8 nM bafilomycin, C non-irradiated control",0.66 ± 0.05
same,Surviving Fraction,"[1]; Table 6, 8 nM bafilomycin, X radiated 3 Gy",0.14 ± 0.02
same,Surviving Fraction,"[1]; Table 6, 16 nM bafilomycin, C non-irradiated control",0.52 ± 0.05
same,Surviving Fraction,"[1]; Table 6, 16 nM bafilomycin, X radiated 3 Gy",0.12 ± 0.03
same,Surviving Fraction,"[1]; Table 7, 2 nM bafilomycin A1, C non-irradiated",does not significantly affect
same,Surviving Fraction,"[1]; Table 7, 2 nM bafilomycin A1, C non-irradiated, listed as bafilomycin Al",0.92 ± 0.06
same,Surviving Fraction,"[1]; Table 7, 2 nM bafilomycin A1, X radiated 3 Gy",0.22 ± 0.04
same,reduction of cell survival,"[1]; Table 7, 2 nM bafilomycin, 300 cGy",49%
same,Surviving Fraction,"[1]; Table 7, 4 nM bafilomycin A1, C non-irradiated",0.79 ± 0.04
same,Surviving Fraction,"[1]; Table 7, 4 nM bafilomycin A1, X radiated 3 Gy",0.16 ± 0.04
same,Surviving Fraction,"[1]; Table 7, 8 nM bafilomycin A1, C non-irradiated",0.60 ± 0.08
same,Surviving Fraction,"[1]; Table 7, 8 nM bafilomycin A1, X radiated 3 Gy",0.12 ± 0.02
same,Surviving Fraction,"[1]; Table 7, 16 nM bafilomycin A1, C non-irradiated",0.35 ± 0.05
same,Surviving Fraction,"[1]; Table 7, 16 nM bafilomycin A1, X radiated 3 Gy",0.09 ± 0.04
same,survival (head of column empty),"[1]; Table 15, MCF-7, Bafilomycin 2 nM alone",0.95 ± 0.1
same,"survival, column Adriamycin","[1]; Table 15, MCF-7, Bafilomycin 4 nM + 100 nM adriamycin",0.35 ± 0.05
same,survival (head of column empty),"[1]; Table 15, MCF-7, Bafilomycin 4 nM alone",0.61 ± 0.05
same,"cell survival, Bafilomycin A1 (2 nM)","[1]; Table 18, MCF-7, Bafilomycin A1 2 nM + Etoposide 0.05 μg/ml",0.36 ± 0.08
same,reduction of the surviving fraction,[1]; bafilomycin A1 for 24 hours following irradiation with 2 and 3 Gy,30%-40%
same,decrease of survival of cells exposed to Adriamycin,"[2]; 2 nM bafilomycin, 100 nM Adriamycin",22%
same,decrease of survival,"[2]; 2 nM bafilomycin, 3 Gy, Table 11 and Table 12",43% and 24%
same,decrease of resistance to Adriamycin,"[2]; 2 nM bafilomycin, Adriamycin 100 nM, 48 hours",35%
same,decrease of survival,"[2]; 2 nm bafilomycin A1, 2 Gy",25%
same,decrease of survival,"[2]; 2 nm bafilomycin A1, 3 Gy",30%
same,Surviving Fraction 0 Gy,"[2]; Table 11, Bafilomycin A1 2 nM",1.14 ± 0.09
same,Surviving Fraction 3 Gy,"[2]; Table 11, Bafilomycin A1 2 nM, 3 Gy",0.24 ± 0.08
same,Surviving Fraction 0 Gy,"[2]; Table 11, Bafilomycin A1 4 nM",1.01 ± 0.03
same,Surviving Fraction 3 Gy,"[2]; Table 11, Bafilomycin A1 4 nM, 3 Gy",0.23 ± 0.02
same,Surviving Fraction 0 Gy,"[2]; Table 11, Bafilomycin A1 8 nM",0.84 ± 0.12
same,Surviving Fraction 3 Gy,"[2]; Table 11, Bafilomycin A1 8 nM, 3 Gy",0.19 ± 0.04
same,Surviving Fraction 0 Gy,"[2]; Table 12, Bafilomycin 2 nM",0.92 ± 0.05
same,Surviving Fraction 3 Gy,"[2]; Table 12, Bafilomycin 2 nM, 3 Gy",0.16 ± 0.01
same,Surviving Fraction 0 Gy,"[2]; Table 12, Bafilomycin 4 nM",0.84 ± 0.03
same,Surviving Fraction 3 Gy,"[2]; Table 12, Bafilomycin 4 nM, 3 Gy",0.08 ± 0.02
same,Surviving Fraction 2 nM Bafilomycin,"[2]; Table 13, 2 nM Bafilomycin, Dose 0 Gy",0.78 ± 0.05
same,Surviving Fraction 2 nM Bafilomycin,"[2]; Table 13, 2 nM Bafilomycin, Dose 2 Gy",0.24 ± 0.03
same,Surviving Fraction 2 nM Bafilomycin,"[2]; Table 13, 2 nM Bafilomycin, Dose 3 Gy",0.11 ± 0.03
same,Surviving Fraction 2 nM Bafilomycin,"[2]; Table 14, 2 nM Bafilomycin + Adriamycin 50 nM",0.73 ± 0.08
same,Surviving Fraction 2 nM Bafilomycin,"[2]; Table 14, 2 nM Bafilomycin + Adriamycin 100 nM",0.60 ± 0.05
same,Surviving Fraction 2 nM Bafilomycin,"[2]; Table 14, 2 nM Bafilomycin + Adriamycin 150 nM",0.38 ± 0.03
same,Surviving Fraction 2 nM Bafilomycin,"[2]; Table 14, 2 nM Bafilomycin, Adriamycin 0 nM",0.93 ± 0.05
same,"survival, Adriamycin 100 nM","[2]; Table 17, Bafilomycin A1 2 nM + Adriamycin 100 nM, 48 hours",0.65 ± 0.05
same,survival (head of column empty),"[2]; Table 17, Bafilomycin A1 2 nM alone, 48 hours",0.86 ± 0.04
same,"survival, Adriamycin 100 nM","[2]; Table 17, Bafilomycin A1 4 nM + Adriamycin 100 nM, 48 hours",0.4 ± 0.01
same,survival (head of column empty),"[2]; Table 17, Bafilomycin A1 4 nM alone, 48 hours",0.61 ± 0.04
same,"cell survival, Bafilomycin (2 nM)","[2]; Table 19, Bafilomycin 2 nM + Etoposide 0.05 μg/ml",0.59 ± 0.08
same,"cell survival, Bafilomycin (2 nM)","[2]; Table 19, Bafilomycin 2 nM, Etoposide 0 μg/ml",1.16 ± 0.07
same,decrease of survival in the presence of etoposide,"[2]; bafilomycin 2 nM, etoposide 0.05 μg/ml",25%
same,concentration range that inhibits V-H+-ATPase activity without affecting F or P-type ATPases,V-ATPase [3],nM range
same,Kd,V-ATPase [4],10 nM
same,effect on Capan-1 xenograft tumor,Capan-1 xenograft tumor,apoptotic death of Capan-1 cells in their xenograft tumor and overall shrinkage of the tumors
same,histological examination of organs,[5]; four weeks treatment,"did not affect the liver, pancreas, small intestine, kidney or lung"
same,growth of nude mice,"[5]; up to four weeks, Ohta et al., 1998",did not affect the growth
same,toxicity when injected intravenously,"[6]; intravenous, Keeling, 1997",toxic
same,bone readsorption,[6]; [8],increased bone readsorption
same,toxicity,[6]; [8],non-toxic
same,tolerability when administered subcutaneously,[6]; subcutaneous,tolerated
